Results: ChEMBL document CHEMBL1136373, “Conformationally restricted 3,4-diarylfuranones (2,3a,4,5-tetrahydronaphthofuranones) as selective cyclooxygenase-2 inhibitors” (Bioorg Med Chem Lett, 2003)

What was measured:
[1] = target: T1, Prostaglandin G/H synthase 1 (Homo sapiens, UniProt P23219); assay: In vitro inhibitory activity against recombinant human Prostaglandin G/H synthase 1 at concentration of 100 uM
[2] = target: T1, Prostaglandin G/H synthase 1; assay: In vitro inhibitory activity against recombinant human Prostaglandin G/H synthase 1
[3] = target: T2, Prostaglandin G/H synthase 2 (Homo sapiens, UniProt P35354); assay: In vitro inhibitory activity against recombinant human Prostaglandin G/H synthase 2
T2 sequence (P35354 whole entry): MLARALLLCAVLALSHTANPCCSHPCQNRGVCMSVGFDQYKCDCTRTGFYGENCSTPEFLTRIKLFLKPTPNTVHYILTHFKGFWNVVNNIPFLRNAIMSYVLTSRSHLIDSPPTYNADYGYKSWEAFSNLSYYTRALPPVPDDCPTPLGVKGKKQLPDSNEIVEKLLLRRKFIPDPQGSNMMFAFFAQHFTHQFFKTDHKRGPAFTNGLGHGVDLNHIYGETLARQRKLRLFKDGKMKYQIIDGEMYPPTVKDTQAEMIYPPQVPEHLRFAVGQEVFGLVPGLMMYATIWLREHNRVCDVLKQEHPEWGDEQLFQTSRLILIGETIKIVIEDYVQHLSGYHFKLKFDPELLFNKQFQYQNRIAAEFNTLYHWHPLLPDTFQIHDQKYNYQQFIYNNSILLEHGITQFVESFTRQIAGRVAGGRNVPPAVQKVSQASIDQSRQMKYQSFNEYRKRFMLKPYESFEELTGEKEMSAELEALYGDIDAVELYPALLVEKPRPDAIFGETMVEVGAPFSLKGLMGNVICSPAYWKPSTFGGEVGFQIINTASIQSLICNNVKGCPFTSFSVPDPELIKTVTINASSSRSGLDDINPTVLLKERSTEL

[4] = target: T1, Prostaglandin G/H synthase 1; assay: Ratio of in vitro inhibitory activity against recombinant human COX-1 to that of recombinant human COX-2

T1 sequence (P23219 whole entry): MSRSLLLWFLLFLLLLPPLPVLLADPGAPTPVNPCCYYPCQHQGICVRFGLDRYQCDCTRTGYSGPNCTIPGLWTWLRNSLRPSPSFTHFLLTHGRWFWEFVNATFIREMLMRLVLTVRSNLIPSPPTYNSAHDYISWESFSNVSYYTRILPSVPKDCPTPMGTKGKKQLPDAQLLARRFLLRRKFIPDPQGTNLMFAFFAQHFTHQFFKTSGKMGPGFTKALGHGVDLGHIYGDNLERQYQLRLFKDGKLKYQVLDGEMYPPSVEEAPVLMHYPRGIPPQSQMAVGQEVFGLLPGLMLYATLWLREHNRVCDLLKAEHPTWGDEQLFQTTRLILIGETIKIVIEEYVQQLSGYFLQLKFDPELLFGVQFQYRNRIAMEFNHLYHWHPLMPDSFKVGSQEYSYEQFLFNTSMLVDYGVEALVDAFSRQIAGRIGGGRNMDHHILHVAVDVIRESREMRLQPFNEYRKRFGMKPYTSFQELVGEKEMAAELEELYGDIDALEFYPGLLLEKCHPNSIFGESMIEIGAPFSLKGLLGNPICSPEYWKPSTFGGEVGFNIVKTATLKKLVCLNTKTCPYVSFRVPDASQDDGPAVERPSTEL

CSc1ccc(C2=C3c4ccccc4CCC3OC2=O)cc1 (stereo unspecified)
inhibition [1]: 100%
IC50 [2]: 53 nM
IC50 [3]: 827 nM

CSc1ccc(C2=C3c4cc(C)ccc4CCC3OC2=O)cc1 (stereo unspecified)
inhibition [1]: 100%
IC50 [2]: 61 nM
IC50 [3]: 971 nM

CS(=O)(=O)c1ccc(C2=C3c4ccccc4CCC3(O)OC2=O)cc1 (stereo unspecified)
inhibition [1]: 57%

C[S+]([O-])c1ccc(C2=C3c4ccccc4CCC3(O)OC2=O)cc1 (stereo unspecified)
inhibition [1]: 11%

CSc1ccc(C2=C3c4ccccc4CCC3(O)OC2=O)cc1 (stereo unspecified)
inhibition [1]: 80%
IC50 [2]: 16700 nM
IC50 [3]: 850 nM

Cc1ccc2c(c1)C1=C(c3ccc(S(C)(=O)=O)cc3)C(=O)OC1CC2 (stereo unspecified)
Ratio [4]: > 45.1
inhibition [1]: 52%
IC50 [2]: > 30000 nM
IC50 [3]: 665 nM

CS(=O)(=O)c1ccc(C2=C3c4ccccc4CCC3OC2=O)cc1 (stereo unspecified)
inhibition [1]: 100%
IC50 [2]: > 45000 nM
IC50 [3]: 562 nM

CSc1ccc(C2=C3c4cc(C)ccc4CCC3(O)OC2=O)cc1 (stereo unspecified)
inhibition [1]: 97%
IC50 [2]: 13200 nM
IC50 [3]: 670 nM
